Consider 4 compounds from ChEMBL document CHEMBL1201862, “PubChem BioAssay data set” (2004).

Molecules are shown by their SMILES.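 Cells were grown in 96-well plates and exposed to each compound for 48 hours at five concentrations; endpoints were interpolated linearly between bracketing concentrations, or set to the highest concentration if not reached. GI50 = concentration required for 50% inhibition of growth.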 Active and inactive are the calls of the source. Cut-off read from the data, not from the text of the source: active = GI50 up to about 1.1 µM and inactive = higher. Some results are limits rather than exact numbers.

Common to all, as to assay: growth of human tumour cells (NCI), 48 h
Experiment [1] deals with A549.
The test system of experiment [2] is CAKI-1.
For experiment [3], the system named is HCC 2998.
The test system of experiment [4] is HCT-116.
Experiment [5] concerns HCT-15.
In experiment [6] the test system is HL-60.
The subject of experiment [7] is IGROV-1.
Experiment [8] has as its system KM12.
In experiment [9] the test system is LOX IMVI.
Experiment [10] relates to Malme-3M.
The test system of experiment [11] is NCI-H460.
For experiment [12], the system named is OVCAR-4.
The test system of experiment [13] is RXF 393.
Experiment [14] deals with SF-295.
For experiment [15], the system named is SK-MEL-28.
Experiment [16] concerns SN12C.
For experiment [17], the system named is SNB-75.
Experiment [18] relates to SW-620.
Experiment [19] has as its system EKVX.
Experiment [20] relates to RPMI-8226.

As for `O=c1ccn([C@@H]2C=C(CO)[C@@H](O)[C@H]2O)c(=O)[nH]1`, the GI50 in experiment [1] is > 625 µM (inactive); in [2], > 625 µM (inactive); in experiment [3] it was > 625 µM (inactive); in [4], > 625 µM (inactive); in experiment [5], greater than 625 µM; in experiment [6], > 625 µM (inactive). Moreover, the GI50 in experiment [7], in [8], in experiment [9], in [10], in experiment [11] and in [12] was > 625 µM (inactive) each time. Further, the GI50 in [13] is > 625 µM (inactive); in experiment [14], > 625 µM (inactive); in [15], > 625 µM (inactive); in [16], > 625 µM (inactive); in experiment [17], 90.4 µM (inactive); in experiment [18] it was > 625 µM (inactive).
For the compound `COc1ccccc1OCC(COC(=O)Nc1ccccc1)OC(=O)Nc1ccccc1` (configuration not stated), the GI50 in [1] is 50.6 µM (inactive); in [2], 20.3 µM (inactive); in experiment [19] it was > 100 µM (inactive); in [3] it was > 100 µM (inactive); in experiment [4], 61.1 µM (inactive); in experiment [5] it was greater than 100 µM. In addition, the GI50 in [6] is 40.6 µM (inactive); in experiment [7], > 100 µM (inactive); in experiment [8], 68.4 µM (inactive); in [9], 25.9 µM (inactive); in experiment [10], 60.8 µM (inactive); in experiment [11] it was 48.5 µM (inactive). Also, the GI50 in experiment [12] is 55.3 µM (inactive); in experiment [13], 12.8 µM (inactive); in experiment [14] it was 39.1 µM (inactive); in [15], > 100 µM (inactive); in [16], 28.5 µM (inactive); in experiment [17], 17.1 µM (inactive). In experiment [18], the GI50 is > 100 µM (inactive).
For the compound `C=C1C(=O)[C@@]23CC[C@H]4[C@@](C)(CCC[C@@]4(C)C(=O)OC)[C@@H]2CC[C@]1(O)C3`, the GI50 is 3.1 µM (inactive) in [1]; 1.55 µM (inactive) in [2]; 2.06 µM (inactive) in experiment [19]; 2.82 µM (inactive) in experiment [3]; 0.953 µM (active) in experiment [4]; 1.26 µM in experiment [5]. Besides, the GI50 in experiment [6] was 0.301 µM (active); in [7], 1.63 µM (inactive); in [8], 2.39 µM (inactive); in experiment [9] it was 0.953 µM (active); in experiment [11], 3.58 µM (inactive); in [12] it was 1.89 µM (inactive). The GI50 was 0.286 µM (active) in experiment [20]; 5.82 µM (inactive) in experiment [14]; 1.84 µM (inactive) in [15]; 1.77 µM (inactive) in experiment [16]; 2.37 µM (inactive) in [17]; 0.624 µM (active) in experiment [18].
Turning to `C[C@H]1O[C@@H](O[C@H]2[C@@H](O)C[C@H](O[C@H]3[C@@H](O)C[C@H](O[C@H]4CC[C@@]5(C)[C@H](CC[C@@H]6[C@@H]5CC[C@]5(C)[C@@H](C7=CC(=O)OC7)CC[C@]65O)C4)O[C@@H]3C)O[C@@H]2C)C[C@H](O)[C@@H]1O` [DIGITOXIN], the GI50 in experiment [1] was < 0.0157 µM (active); in experiment [2], 0.0184 µM (active); in experiment [19], 0.0286 µM (active); in [3], 0.171 µM (active); in experiment [4], 0.0165 µM (active); in [5], 0.0305 µM. The GI50 is 0.0365 µM (active) in [7]; 0.0553 µM (active) in experiment [8]; 0.028 µM (active) in experiment [10]; 0.0199 µM (active) in experiment [12]; 0.0292 µM (active) in [20]; 0.0175 µM (active) in experiment [13]. Besides, the GI50 in experiment [14] was 0.0258 µM (active); in experiment [15] it was 0.092 µM (active); in experiment [16] it was < 0.01 µM (active); in experiment [17] it was 0.0676 µM (active); in [18] it was 0.0296 µM (active).
